# From ChEMBL document CHEMBL1201862, “PubChem BioAssay data set” (2004)
# Active and inactive are the calls of the source.
# Key:
# Streptococcus = assay: GAS UMAA2166 growth inhibition – luminescence, BacTiterGlo, counter-screen for streptokinase expression inhibitor project, dose response (AID 1915); type: functional, organism-based;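 also: potency for reduction of bacterial viability or growth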
# [1] = viability of uninfected HEp-2 cells – cell-based, HTS, cytotoxicity control for RSV inhibitor project, dose response (AID 2410); type: functional; conditions: human respiratory syncytial virus
# Streptokinase A = molecular target: T1, Streptokinase A (Streptococcus pyogenes serotype M1, UniProt P10520); assay: viability-normalized secreted streptokinase activity reduction – plasminogen activation absorbance, OD405, dose response (AID 1914); type: functional, Streptococcus pyogenes M1 GAS;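 also: secreted streptokinase activity via plasminogen activation per viability signal from cell pellet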
# T1 sequence (P10520 whole entry): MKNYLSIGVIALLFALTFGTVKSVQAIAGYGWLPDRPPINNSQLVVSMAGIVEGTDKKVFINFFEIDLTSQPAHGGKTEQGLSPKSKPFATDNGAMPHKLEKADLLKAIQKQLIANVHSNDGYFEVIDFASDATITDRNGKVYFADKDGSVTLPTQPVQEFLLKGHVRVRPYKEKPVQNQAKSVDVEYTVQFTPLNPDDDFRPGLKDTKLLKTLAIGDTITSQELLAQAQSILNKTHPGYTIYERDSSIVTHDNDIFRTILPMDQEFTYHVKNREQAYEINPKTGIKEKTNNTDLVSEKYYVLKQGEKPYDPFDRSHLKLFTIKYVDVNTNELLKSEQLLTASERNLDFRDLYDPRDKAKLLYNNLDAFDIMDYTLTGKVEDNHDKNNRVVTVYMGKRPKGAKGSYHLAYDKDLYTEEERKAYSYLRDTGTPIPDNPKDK
# [2] = tested on: Streptococcus sp. 'group A'; assay: Streptococcus pyogenes SK(-)GAS viability under kanamycin – luminescence, BacTiterGlo, confirmation, counter-screen for streptokinase expression inhibitor project, dose response (AID 1900); type: functional, organism-based
# [3] = THP-1 cell cytotoxicity, dose response, cytotoxicity control for non-replicating M. tuberculosis project (AID 489025); type: functional
# Hexokinase = molecular target: T2, Hexokinase (Trypanosoma brucei, UniProt Q38C41); assay: Confirmation assay for inhibitors of Trypanosoma brucei hexokinase 1-Analogue-first series. [Related pubchem assays (depositor defined):AID1430, AID1632, AID2516, AID2560, AID2579, AID2600, AID449725, AID492951]; type: functional
# T2 sequence (Q38C41 whole entry): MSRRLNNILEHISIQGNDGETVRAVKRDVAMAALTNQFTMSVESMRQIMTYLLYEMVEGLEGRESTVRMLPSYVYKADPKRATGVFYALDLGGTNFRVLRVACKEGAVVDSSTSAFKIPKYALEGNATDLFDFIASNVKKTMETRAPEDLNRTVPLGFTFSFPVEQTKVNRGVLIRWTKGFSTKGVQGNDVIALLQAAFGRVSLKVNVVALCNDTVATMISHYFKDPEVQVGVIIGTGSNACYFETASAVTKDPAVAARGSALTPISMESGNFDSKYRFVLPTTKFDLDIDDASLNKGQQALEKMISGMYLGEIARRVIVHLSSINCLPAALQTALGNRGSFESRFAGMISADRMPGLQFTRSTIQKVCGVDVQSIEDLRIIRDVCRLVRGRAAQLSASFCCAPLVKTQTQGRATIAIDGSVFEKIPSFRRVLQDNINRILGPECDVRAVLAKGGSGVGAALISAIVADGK
# [4] = molecular target: Voltage-dependent T-type calcium channel subunit alpha-1H (Homo sapiens, UniProt O95180); type: functional;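 also: channel activity triggered by adding a high calcium stimulation buffer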
# Voltage-dependent T-type calcium channel subunit alpha-1H, sequence (O95180 whole entry): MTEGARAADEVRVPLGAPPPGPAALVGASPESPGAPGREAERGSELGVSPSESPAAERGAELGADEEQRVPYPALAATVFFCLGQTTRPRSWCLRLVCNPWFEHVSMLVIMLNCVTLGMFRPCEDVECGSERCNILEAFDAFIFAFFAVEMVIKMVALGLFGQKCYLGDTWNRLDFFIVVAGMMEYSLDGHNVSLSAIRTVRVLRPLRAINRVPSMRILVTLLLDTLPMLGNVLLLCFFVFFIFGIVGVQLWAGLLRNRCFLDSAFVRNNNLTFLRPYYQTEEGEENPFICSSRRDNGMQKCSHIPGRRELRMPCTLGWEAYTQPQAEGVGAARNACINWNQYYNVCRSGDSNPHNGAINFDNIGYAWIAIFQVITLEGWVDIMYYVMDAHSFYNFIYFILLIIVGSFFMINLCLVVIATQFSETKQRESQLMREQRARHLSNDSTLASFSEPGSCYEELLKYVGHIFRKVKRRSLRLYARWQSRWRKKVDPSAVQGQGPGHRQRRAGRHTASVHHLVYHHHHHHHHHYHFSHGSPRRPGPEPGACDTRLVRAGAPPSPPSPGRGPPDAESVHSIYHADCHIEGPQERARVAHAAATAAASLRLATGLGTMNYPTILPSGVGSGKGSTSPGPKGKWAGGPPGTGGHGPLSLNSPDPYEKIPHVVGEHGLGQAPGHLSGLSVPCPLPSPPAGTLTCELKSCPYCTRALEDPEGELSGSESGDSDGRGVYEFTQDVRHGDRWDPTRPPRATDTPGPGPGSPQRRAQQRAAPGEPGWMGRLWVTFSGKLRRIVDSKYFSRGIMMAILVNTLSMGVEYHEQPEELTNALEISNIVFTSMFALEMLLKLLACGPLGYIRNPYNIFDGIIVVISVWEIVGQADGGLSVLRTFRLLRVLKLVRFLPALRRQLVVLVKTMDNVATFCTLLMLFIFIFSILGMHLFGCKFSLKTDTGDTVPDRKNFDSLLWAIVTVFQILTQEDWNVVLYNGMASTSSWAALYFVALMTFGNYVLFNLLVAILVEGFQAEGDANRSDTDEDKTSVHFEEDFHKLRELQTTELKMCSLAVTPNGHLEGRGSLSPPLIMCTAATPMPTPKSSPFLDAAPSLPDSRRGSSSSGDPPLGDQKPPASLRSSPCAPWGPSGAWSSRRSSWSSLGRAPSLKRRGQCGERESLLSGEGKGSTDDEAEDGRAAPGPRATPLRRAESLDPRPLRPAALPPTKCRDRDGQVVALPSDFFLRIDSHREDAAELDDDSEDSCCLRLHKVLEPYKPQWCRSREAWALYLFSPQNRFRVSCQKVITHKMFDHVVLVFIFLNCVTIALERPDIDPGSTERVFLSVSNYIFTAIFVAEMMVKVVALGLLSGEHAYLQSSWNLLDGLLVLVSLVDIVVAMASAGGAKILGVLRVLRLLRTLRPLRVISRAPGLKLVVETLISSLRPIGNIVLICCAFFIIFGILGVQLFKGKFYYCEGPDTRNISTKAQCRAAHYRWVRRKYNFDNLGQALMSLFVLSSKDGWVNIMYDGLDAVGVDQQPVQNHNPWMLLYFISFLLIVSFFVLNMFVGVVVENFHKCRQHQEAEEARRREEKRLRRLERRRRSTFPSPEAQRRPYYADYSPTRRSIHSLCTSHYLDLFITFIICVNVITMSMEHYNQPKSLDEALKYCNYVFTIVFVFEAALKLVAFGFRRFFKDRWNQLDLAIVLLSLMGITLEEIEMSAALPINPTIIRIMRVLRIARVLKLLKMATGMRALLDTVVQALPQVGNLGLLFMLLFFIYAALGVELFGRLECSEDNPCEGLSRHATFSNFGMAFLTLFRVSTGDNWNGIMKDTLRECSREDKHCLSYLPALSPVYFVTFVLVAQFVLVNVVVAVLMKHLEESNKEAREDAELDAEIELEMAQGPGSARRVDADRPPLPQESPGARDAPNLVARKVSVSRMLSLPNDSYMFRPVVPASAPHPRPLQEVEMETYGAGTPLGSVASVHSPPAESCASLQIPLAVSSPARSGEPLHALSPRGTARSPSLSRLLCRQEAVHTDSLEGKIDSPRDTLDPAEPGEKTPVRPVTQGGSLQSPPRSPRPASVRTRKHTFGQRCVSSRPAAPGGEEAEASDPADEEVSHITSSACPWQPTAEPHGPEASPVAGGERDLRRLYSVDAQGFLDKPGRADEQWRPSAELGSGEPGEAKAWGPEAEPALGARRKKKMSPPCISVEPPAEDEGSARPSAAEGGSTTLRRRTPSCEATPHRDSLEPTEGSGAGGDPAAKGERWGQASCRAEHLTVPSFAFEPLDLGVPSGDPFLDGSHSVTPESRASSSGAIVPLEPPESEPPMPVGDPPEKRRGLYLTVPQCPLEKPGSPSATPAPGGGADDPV
# [5] = molecular target: T3, Heat shock factor protein 1 (Mus musculus, UniProt P38532); assay: enhancement of HSF1-driven luciferase signal – cell-based, NIH3T3, luminescence, dose retest, confirmation (AID 435004); type: functional;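 also: stress induced by proteasome inhibitor MG132 added 30 min after compound; luciferase reporter driven by HSF1 response element in NIH3T3 cells; actives raise luminescence as potentiators of the MG132 stress response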
# T3 sequence (P38532 whole entry): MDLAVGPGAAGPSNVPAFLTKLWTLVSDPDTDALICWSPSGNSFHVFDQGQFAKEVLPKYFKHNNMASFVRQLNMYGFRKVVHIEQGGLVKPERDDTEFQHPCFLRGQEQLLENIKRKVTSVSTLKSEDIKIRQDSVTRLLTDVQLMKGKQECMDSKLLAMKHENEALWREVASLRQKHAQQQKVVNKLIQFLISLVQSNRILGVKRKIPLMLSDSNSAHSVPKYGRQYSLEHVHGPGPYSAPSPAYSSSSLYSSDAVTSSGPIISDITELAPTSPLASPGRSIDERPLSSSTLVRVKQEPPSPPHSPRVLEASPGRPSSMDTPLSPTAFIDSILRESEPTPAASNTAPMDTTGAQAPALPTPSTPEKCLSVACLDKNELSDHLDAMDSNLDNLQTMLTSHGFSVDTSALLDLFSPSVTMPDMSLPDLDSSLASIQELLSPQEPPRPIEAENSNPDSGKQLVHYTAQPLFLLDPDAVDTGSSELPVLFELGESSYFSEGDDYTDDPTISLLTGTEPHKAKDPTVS
# [6] = molecular target: T4, Short transient receptor potential channel 4 (Mus musculus, UniProt Q9QUQ5); assay: block of DAMGO-driven TRPC4 calcium entry – cell-based, HEK293 TRPC4/mu-opioid, Fluo-4 calcium, dose response (AID 434942); type: functional;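 also: potency of inhibitors blocking the TRPC4 calcium response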
# T4 sequence (Q9QUQ5 whole entry): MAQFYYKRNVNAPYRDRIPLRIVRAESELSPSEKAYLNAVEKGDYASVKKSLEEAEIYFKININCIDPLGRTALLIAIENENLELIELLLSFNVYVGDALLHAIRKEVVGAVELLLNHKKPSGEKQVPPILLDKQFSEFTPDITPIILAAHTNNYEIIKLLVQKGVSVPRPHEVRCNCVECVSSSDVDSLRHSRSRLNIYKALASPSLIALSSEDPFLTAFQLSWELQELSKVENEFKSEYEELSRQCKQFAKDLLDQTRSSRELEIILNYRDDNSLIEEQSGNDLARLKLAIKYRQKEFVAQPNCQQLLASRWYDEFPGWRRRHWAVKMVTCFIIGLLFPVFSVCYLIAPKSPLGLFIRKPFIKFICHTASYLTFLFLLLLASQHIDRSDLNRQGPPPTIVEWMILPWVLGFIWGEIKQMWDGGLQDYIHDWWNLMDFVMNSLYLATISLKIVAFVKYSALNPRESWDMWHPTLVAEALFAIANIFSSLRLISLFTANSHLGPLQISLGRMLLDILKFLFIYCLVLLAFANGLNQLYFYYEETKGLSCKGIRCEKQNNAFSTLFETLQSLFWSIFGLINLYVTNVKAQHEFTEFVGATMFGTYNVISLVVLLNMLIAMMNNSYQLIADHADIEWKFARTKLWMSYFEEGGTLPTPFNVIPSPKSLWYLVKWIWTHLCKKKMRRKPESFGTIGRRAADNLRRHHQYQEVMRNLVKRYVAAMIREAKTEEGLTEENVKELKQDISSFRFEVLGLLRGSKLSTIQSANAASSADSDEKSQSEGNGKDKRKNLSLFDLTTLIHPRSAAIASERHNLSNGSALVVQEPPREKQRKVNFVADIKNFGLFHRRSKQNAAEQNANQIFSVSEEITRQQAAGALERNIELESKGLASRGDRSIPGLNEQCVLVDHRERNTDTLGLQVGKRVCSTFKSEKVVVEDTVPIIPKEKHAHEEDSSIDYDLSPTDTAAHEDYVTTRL
# Leucine aminopeptidase = molecular target: T5, Leucine aminopeptidase (Plasmodium falciparum 3D7, UniProt Q8IL11); assay: P. falciparum M17LAP inhibitors, primary screen, biochemical, fluorogenic H-Leu-NHMec substrate, 1536-well (AID 1619); type: functional
# T5 sequence (Q8IL11 whole entry): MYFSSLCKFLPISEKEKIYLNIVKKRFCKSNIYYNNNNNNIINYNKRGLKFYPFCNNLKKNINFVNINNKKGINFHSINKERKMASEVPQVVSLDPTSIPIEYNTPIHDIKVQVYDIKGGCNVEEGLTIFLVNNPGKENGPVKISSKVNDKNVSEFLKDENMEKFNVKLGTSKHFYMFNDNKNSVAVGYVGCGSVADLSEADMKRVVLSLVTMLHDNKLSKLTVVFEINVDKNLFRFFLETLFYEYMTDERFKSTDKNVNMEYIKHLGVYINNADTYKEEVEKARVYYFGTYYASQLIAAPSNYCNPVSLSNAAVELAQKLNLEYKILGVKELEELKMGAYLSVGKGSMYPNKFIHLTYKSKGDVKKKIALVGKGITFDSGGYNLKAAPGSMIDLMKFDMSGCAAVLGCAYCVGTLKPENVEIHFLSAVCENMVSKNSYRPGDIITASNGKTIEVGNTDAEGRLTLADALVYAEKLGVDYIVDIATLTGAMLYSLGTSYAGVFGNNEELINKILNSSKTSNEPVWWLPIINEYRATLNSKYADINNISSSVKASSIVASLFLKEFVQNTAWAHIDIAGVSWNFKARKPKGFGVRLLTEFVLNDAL
# [7] = molecular target: T6, Rac GTPase-activating protein 1 (Homo sapiens, UniProt Q9H0H5); assay: blockers of MgcRacGAP-driven Rac1 GTP hydrolysis – biochemical, ADP Hunter fluorescence, primary and confirmatory, confirmation (AID 624330); type: functional
# T6 sequence (Q9H0H5 whole entry): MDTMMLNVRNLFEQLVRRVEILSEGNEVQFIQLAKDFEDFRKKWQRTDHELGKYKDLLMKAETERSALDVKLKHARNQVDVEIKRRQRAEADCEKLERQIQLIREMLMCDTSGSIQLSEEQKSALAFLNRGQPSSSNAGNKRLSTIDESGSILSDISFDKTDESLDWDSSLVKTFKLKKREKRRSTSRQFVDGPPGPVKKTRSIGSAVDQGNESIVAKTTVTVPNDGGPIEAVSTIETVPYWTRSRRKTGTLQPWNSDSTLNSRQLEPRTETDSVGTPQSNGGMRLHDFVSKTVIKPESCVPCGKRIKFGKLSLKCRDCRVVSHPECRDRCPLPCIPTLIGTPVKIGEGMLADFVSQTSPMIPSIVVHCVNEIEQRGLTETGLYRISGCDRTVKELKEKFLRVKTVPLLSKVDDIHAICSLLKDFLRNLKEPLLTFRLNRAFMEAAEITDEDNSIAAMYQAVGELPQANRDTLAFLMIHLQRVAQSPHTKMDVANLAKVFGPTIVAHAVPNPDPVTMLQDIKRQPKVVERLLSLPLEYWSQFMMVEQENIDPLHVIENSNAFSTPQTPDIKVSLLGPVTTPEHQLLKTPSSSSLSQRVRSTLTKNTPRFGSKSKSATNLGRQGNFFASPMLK
# Large T antigen = Large T antigen (Simian virus 40, UniProt P03070); type: functional, Betapolyomavirus macacae;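 also: Confirmatory-stage PubChem screen for compounds that inhibit SV40 T antigen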
# Large T antigen, sequence (P03070 whole entry): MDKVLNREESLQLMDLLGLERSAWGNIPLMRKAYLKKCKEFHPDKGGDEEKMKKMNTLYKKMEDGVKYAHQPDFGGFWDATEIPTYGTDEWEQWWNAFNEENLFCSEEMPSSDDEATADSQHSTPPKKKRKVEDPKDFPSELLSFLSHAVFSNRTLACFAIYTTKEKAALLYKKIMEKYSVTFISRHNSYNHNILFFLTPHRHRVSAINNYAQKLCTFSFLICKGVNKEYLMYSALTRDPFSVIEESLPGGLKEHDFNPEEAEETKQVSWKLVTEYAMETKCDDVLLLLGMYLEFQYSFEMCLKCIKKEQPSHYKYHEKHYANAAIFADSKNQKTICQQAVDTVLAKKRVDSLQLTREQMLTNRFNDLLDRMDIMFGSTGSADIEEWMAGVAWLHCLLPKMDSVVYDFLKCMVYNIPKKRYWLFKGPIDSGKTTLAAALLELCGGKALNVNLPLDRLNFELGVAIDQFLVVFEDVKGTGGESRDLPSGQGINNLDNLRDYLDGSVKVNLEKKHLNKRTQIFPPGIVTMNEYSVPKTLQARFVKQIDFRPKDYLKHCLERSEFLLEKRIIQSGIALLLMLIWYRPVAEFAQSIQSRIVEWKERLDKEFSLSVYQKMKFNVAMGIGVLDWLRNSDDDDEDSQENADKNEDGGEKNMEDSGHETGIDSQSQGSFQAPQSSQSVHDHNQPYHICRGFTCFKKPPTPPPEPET
# [8] = molecular target: FAD-linked sulfhydryl oxidase ALR (Homo sapiens, UniProt P55789); assay: ALR-catalysed DTT oxidation blockers – biochemical, H2O2 detection, luminescence, cherry-pick, dose response (AID 493248)
# FAD-linked sulfhydryl oxidase ALR, sequence (P55789 whole entry): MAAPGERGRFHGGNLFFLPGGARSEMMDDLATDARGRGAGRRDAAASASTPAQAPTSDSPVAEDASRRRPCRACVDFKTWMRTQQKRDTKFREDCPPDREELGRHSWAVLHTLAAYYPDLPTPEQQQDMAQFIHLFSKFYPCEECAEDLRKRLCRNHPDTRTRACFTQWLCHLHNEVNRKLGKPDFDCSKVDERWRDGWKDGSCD
smiles,measurement,setting,value
Nc1sc(-c2ccccc2)cc1C(=O)N/N=C/c1ccc(Cl)cc1,EC50,Streptococcus,4.54 µM (active)
same,CC50,[1],> 50 µM (active)
same,IC50,cells,35.7 µM (active)
same,EC50,Streptokinase A,> 150 µM (not active)
same,EC50,[2],3.46 µM (active)
CCN(c1ccccc1)S(=O)(=O)c1ccc(OC)c(NC(=O)Cc2ccccc2OC)c1,CC50,[1],> 50 µM (active)
same,IC50,cells,35 µM (active)
Oc1ccccc1Nc1nc(NCC2CCCO2)c2ccccc2n1 (stereo not drawn),CC50,[3],30.4 µM (active)
Cc1cc2nc(-c3ccc(NC(=O)C(C)C)cc3)oc2cc1C,IC50,cells,39.1 µM (active)
O=C(Nc1cc(Cl)ccc1C(=O)O)c1cocn1,IC50,Hexokinase,> 25 µM (inactive)
CC(C)(C)Cc1nc2ccccc2n1CCc1ccccc1,EC50,[4],7.13 µM (active)
same,EC50,[5],> 260 µM (inactive)
same,EC50,[6],1.06 µM (active)
O=C(/C=C/c1ccc2c(c1)OCO2)NCCSCc1ccc(Cl)cc1Cl,EC50,[4],4.94 µM (active)
COc1ccc(NC(=O)c2ccccc2SCc2ccccc2)cc1,IC50,Hexokinase,> 25 µM (inactive)
O=C1CCSc2ccc(Cl)cc2N1Cc1cccc(Cl)c1,CC50,[1],35.5 µM (active)
same,IC50,cells,42.8 µM (active)
Cc1ccc(C)c(N2CCN(C(=O)Cc3cn(C)c4ccccc34)CC2)c1,EC50,[4],9.19 µM (active)
COc1ccc2sc(N3C(=O)C4CC=C(C)CC4C3=O)nc2c1 (stereo not drawn),IC50,Leucine aminopeptidase,35 µM (active)
Cc1cc(C)nc(SCc2nnc(SCC(=O)Nc3ccc(C)c(C)c3)n2Cc2ccco2)n1,EC50,[4],4.05 µM (active)
COc1cc2c(cc1OC)C(C)N(C(=O)c1cc3ccccc3o1)CC2 (stereo not drawn),CC50,[1],17.7 µM (active)
same,IC50,cells,39.6 µM (active)
COc1ccc(C(=O)Nc2cc(Br)ccc2C(=O)O)cc1,IC50,Hexokinase,6.94 µM (active)
CCOc1ccc(Nc2nc(Cc3nnc(SCC(=O)NCc4ccco4)n3CC)cs2)cc1,IC50,Leucine aminopeptidase,28.1 µM (active)
O=C(O)c1cc(/C=N\O)ccc1OCc1ccccc1,IC50,Leucine aminopeptidase,16.4 µM (active)
COc1cc(/C(C)=N/NC(=O)Cc2c(C)n[nH]c2O)ccc1O,IC50,[7],69.8 µM (active)
same,IC50,Large T antigen,13 µM (active)
same,IC50,Leucine aminopeptidase,34.1 µM (active)
same,AC50,[8],4.03 µM (active)
COc1ccc2c(c1)CN(c1cc(Cl)ccc1C(=O)O)C2=O,IC50,Hexokinase,> 25 µM (inactive)
Cc1cc(O)nc(SCC(=O)Nc2ccc(F)cc2)c1C#N,IC50,Leucine aminopeptidase,4.1 µM (active)
COc1ccc(C(=O)Nc2cc(Cl)ccc2-c2nnn[nH]2)cc1,IC50,Hexokinase,10.9 µM (active)
CCOc1cc(CNc2ccccc2)cc(Br)c1OCC(=O)NC(C)(C)C,EC50,[4],15.4 µM (active)
